Read-outs that look alike come from different tables or passages of the source.
Experiments:
[1] = background statement on known luminophores; cited from earlier work
[2] = Photoluminescence properties of the probe (spectra, Stokes' shift, lifetime, extinction); format: physicochemical
Description: Photoluminescence may be characterized by a number of parameters, including extinction coefficient, excitation and emission spectrum, Stokes' shift, luminescence lifetime, and quantum yield. An extinction coefficient is a wavelength-dependent measure of the absorbing power of a luminophore. An excitation spectrum is the dependence of emission intensity upon the excitation wavelength, measured at a single constant emission wavelength. An emission spectrum is the wavelength distribution of the emission, measured after excitation with a single constant excitation wavelength. A Stokes' shift is the difference in wavelengths between the maximum of the emission spectrum and the maximum of the absorption spectrum. A luminescence lifetime is the average time that a luminophore spends in the excited state prior to returning to the ground state. A quantum yield is the ratio of the number of photons emitted to the number of photons absorbed by a luminophore.

[3] = Intrinsic polarization from excitation polarization spectra in vitrified solution; format: physicochemical; details: for fundamental anisotropy r0: corresponding to the intrinsic polarization; for intrinsic polarization P0: excitation polarization spectra in vitrified solution (glycerol: water=6:4; −55° C.)
Description: Aspects of the invention include the use of selected long-lifetime metal-ligand complexes in luminescence polarization assays. Here, as elsewhere in the application, polarization assays encompass any assays involving detection of polarized light, including steady-steady and time-resolved assays, and computation of polarization and anisotropy functions, among others. […] Here, the invention was used without limitation to monitor interactions between human serum albumin (HSA) and goat-anti-HSA (IgG) antibodies. The HSA was labeled with a ruthenium-ligand complex polarization probe, Sunnyvale Red™ (SVR™), as described elsewhere in this application. […] These values were determined by measuring the excitation polarization spectra in vitrified solution (glycerol: water=6:4; −55° C.).

## O=C([O-])c1ccnc(-c2cc(C(=O)[O-])ccn2)c1.[Ru+2].c1ccc(-c2ccccn2)nc1.c1ccc(-c2ccccn2)nc1 [Ru(bpy)2dcbpy, ruthenium 2,2′-dibipyridyl 4,4′-dicarboxyl-2,2′-bipyridine]
[1]
  luminescence lifetime (general statement): roughly 400 nanoseconds

## Ru(bpy)2(dacbpy)-ITC [Sunnyvale Red™]
[2]
  Stokes' shift: ~200 nm
  emission maximum: 670 nm
  excitation maximum: 488 nm
  luminescence lifetime: about 360 ns
[2]; listed as SVR
  excitation maximum: 487 nm
  luminescence lifetime: 360 ns
[2]; used with A479 for dye concentration
  extinction coefficient E(SVR): ~15,000
[3]
  fundamental anisotropy r0: about 0.28
  intrinsic polarization P0: about 0.37
[3]; listed as SVR
  fundamental anisotropy r0: 0.27
  intrinsic polarization P0: 0.36
